Values joined by “and” are separate entries in the source; they are usually repeats but may differ in a detail not shown here. Identical values can stand only once.
target: T1, PKD1 (Homo sapiens, UniProt Q15139); test: IMAP-FP PKD1 assay; type: biochemical; conditions: not given
T1 sequence (Q15139 1-912): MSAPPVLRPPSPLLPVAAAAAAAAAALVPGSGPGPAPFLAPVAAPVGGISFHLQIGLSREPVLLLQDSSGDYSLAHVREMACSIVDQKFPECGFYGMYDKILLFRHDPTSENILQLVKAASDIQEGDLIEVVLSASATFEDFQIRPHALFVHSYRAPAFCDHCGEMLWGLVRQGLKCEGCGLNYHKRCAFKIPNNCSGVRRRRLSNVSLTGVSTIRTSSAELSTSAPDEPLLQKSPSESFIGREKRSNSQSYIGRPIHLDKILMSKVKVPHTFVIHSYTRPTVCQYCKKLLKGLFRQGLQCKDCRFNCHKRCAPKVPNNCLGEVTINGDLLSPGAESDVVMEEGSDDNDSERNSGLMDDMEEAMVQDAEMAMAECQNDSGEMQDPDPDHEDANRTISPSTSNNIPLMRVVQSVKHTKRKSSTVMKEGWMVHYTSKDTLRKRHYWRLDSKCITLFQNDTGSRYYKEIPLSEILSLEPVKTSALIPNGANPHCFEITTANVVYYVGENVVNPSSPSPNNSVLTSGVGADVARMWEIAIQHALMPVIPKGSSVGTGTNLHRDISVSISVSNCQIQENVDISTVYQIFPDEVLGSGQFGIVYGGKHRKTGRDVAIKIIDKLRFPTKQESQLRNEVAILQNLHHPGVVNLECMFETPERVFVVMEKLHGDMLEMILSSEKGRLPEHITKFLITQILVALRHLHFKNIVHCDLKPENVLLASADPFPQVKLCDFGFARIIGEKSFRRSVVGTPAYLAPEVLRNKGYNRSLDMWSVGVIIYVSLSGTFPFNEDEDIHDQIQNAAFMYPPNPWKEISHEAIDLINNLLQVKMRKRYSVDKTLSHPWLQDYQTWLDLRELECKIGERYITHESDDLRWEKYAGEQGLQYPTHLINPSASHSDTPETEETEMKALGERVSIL
Excerpt: See Sharlow, E. R., et. al., J Biol Chem, 283: 33516-33526, (2008). The assay established the concentration of inhibitor that is required to reduce PKD1 activity by 50% (IC50), as shown in Table 2 above.

SMILES	IC50
O=C1NCCCc2c1oc1ccc(O)c(Cl)c21 [kb-NB77-88, 6-Chloro-7-hydroxy-2,3,4,5-tetrahydro-[1]benzoxolo[2,3-c]azepin-1-one]	1.4 ± 0.1 µM
O=C1NCCc2c1[nH]c1ccc(O)cc21 [kb-NB123-59, 2,3,4,9-Tetrahydro-6-hydroxy-1H-pyrido[3,4-b]indol-1-one]	19.4 ± 1.4 µM

target: T2, purified recombinant human PKD1 (Homo sapiens, UniProt Q15139); test: radiometric PKD kinase activity assay; type: biochemical; conditions: not given
T2 sequence (Q15139 1-912): T1 sequence (Q15139 1-912)
Description: The radiometric PKD kinase assay was carried out by co-incubating 0.5 μCi γ-32P-ATP (PerkinElmer, Boston, Mass.), 20 μM ATP, 50 ng purified recombinant human PKD (PKD1, PKD2, PKD3) proteins, and 2.5 μg Syntide-2 (Sigma) in 50 μl kinase buffer that contains 50 mM Tris-HCl, pH 7.5, 4 mM MgCl2, 10 mM β-mercaptoethanol. The reaction was carried out under sub-saturation conditions, such that the initial rate was within linear kinetic range. The reaction mixture was incubated at 30° C. for 10 min, followed by spotting 25 μl of the mix onto a Whatman P81 filter paper (Whatman Inc, Clifton, N.J.). The filter papers were then washed three times in 0.5% phosphoric acid, air-dried, and counted using a Beckman LS6500 multi-purpose scintillation counter (Beckman, Fullerton, Calif.).

SMILES	fold more potent than CID755673 (in vitro PKD1 IC50)
O=C1NCCSc2c1sc1ccc(O)cc21 [kb-NB142-70, 3,4-Dihydro-9-hydroxy-[1]benzothieno[2,3-f]-1,4-thiazepin-5(2H)-one]	~7 fold

same assay, conditions: radiometric kinase activity assay, in vitro; read-out: IC50 PKD1

SMILES	IC50
O=C1NCCSc2c1sc1ccc(O)c(I)c21 [kb-NB165-31, 3,4-Dihydro-9-hydroxy-10-iodo-[1]benzothieno[2,3-f]-1,4-thiazepin-5(2H)-one]	0.114 µM
O=C1NCCCc2c1oc1ccc(O)cc21 [CID755673, 7-Hydroxy-2,3,4,5-tetrahydro-[1]benzoxolo[2,3-c]azepin-1-one, reference compound]	0.182 ± 0.027 µM
O=C1NCCSc2c1sc1ccc(O)cc21 [kb-NB142-70, 3,4-Dihydro-9-hydroxy-[1]benzothieno[2,3-f]-1,4-thiazepin-5(2H)-one]	0.0283 ± 0.0023 µM
COc1ccc2sc3c(c2c1)SCCNC3=O [kb-NB165-09, 3,4-Dihydro-9-methoxy-[1]benzothieno[2,3-f]-1,4-thiazepin-5(2H)-one]	0.0825 ± 0.0046 µM
O=C1NCCCSc2c1sc1ccc(O)cc21 [kb-NB165-92, 2,3,4,5-Tetrahydro-10-hydroxybenzo[b]thieno[2,3-f]-1,5-thiazocin-6-one]	0.111 ± 0.006 µM
COc1ccc2sc3c(c2c1)SCCCNC3=O [kb-NB184-02, 2,3,4,5-Tetrahydro-10-methoxybenzo[b]thieno[2,3-f]-1,5-thiazocin-6-one]	0.193 ± 0.027 µM

same assay, conditions: read-out: IC50 radiometric PKD1

SMILES	IC50
O=C1NCCSc2c1sc1ccc(O)c(I)c21 [kb-NB165-31, 3,4-Dihydro-9-hydroxy-10-iodo-[1]benzothieno[2,3-f]-1,4-thiazepin-5(2H)-one]	0.11 ± 0.02 µM
COc1ccc2sc3c(c2c1)SCCCNC3=O [kb-NB184-02, 2,3,4,5-Tetrahydro-10-methoxybenzo[b]thieno[2,3-f]-1,5-thiazocin-6-one]	0.19 ± 0.03 µM
O=C1NCCCc2c1oc1ccc(O)c(Cl)c21 [kb-NB77-88, 6-Chloro-7-hydroxy-2,3,4,5-tetrahydro-[1]benzoxolo[2,3-c]azepin-1-one]	0.89 µM
O=C1NCCc2c1[nH]c1ccc(O)cc21 [kb-NB123-59, 2,3,4,9-Tetrahydro-6-hydroxy-1H-pyrido[3,4-b]indol-1-one]	1.57 ± 0.2 µM

test system: AKT; test: IMAP-based AKT fluorescent polarization counter-screen; type: biochemical; conditions: read-out: IC50 AKT (Ave ± SD)
Description: (§1) Automated, highthroughput screening (HTS) formatted IMAP-based AKT fluorescent polarization assay (AKT FP), and PLK1 and CAK TR-FRET assays were used to assess the specificity of the PKD analogs as previously described. See Sharlow, E. R., et. al., J. Biol Chem, 283: 33516-33526, (2008). For the PLK2 IMAP TR-FRET assay, PLK2 kinase reactions were generated by the stepwise addition of a 3-fold excess concentration of substrate/ATP (1650 nM/105 μM), analog, and PLK2 enzyme (1.02 milliunits/μL). PLK2 kinase reactions were incubated for 150 min at room temperature and stopped with the addition of an IMAP binding reagent supplemented with terbium. Assay plates were then incubated overnight. Analysis was performed as described in the literature. Id.
(§2) The PLK2 substrate (FAM-[…]) was obtained from Molecular Devices (Sunnyvale, Calif.). H-89 was used as a positive inhibitory control compound in the assays. A 10 point concentration range for each compound to be tested was used to determine IC50 values. The maximum concentration of a particular compound used in this assay was either 50 μM, or 100 μM, depending on the solubility of the individual compounds. Each experiment was assayed in triplicate and data is represented as average IC50±SD. The IC50 determinations for each analog evaluated in the IMAP (PLK2, PLK1, CAK, and AKT) formats were conducted within the linear range of the captured signal readout.

SMILES	IC50
O=C1NCCSc2c1sc1ccc(O)cc21 [kb-NB142-70, 3,4-Dihydro-9-hydroxy-[1]benzothieno[2,3-f]-1,4-thiazepin-5(2H)-one]	> 100 µM
COc1ccc2sc3c(c2c1)SCCNC3=O [kb-NB165-09, 3,4-Dihydro-9-methoxy-[1]benzothieno[2,3-f]-1,4-thiazepin-5(2H)-one]	> 50 µM
O=C1NCCCSc2c1sc1ccc(O)cc21 [kb-NB165-92, 2,3,4,5-Tetrahydro-10-hydroxybenzo[b]thieno[2,3-f]-1,5-thiazocin-6-one]	> 50 µM
COc1ccc2sc3c(c2c1)SCCCNC3=O [kb-NB184-02, 2,3,4,5-Tetrahydro-10-methoxybenzo[b]thieno[2,3-f]-1,5-thiazocin-6-one]	> 100 µM

target: PLK1 (Homo sapiens, UniProt P53350); test: IMAP PLK1 TR-FRET counter-screen; type: biochemical; conditions: read-out: IC50 PLK1 (Ave ± SD)
Description: as §1, §2

PLK1, sequence (P53350 whole entry, species assumed): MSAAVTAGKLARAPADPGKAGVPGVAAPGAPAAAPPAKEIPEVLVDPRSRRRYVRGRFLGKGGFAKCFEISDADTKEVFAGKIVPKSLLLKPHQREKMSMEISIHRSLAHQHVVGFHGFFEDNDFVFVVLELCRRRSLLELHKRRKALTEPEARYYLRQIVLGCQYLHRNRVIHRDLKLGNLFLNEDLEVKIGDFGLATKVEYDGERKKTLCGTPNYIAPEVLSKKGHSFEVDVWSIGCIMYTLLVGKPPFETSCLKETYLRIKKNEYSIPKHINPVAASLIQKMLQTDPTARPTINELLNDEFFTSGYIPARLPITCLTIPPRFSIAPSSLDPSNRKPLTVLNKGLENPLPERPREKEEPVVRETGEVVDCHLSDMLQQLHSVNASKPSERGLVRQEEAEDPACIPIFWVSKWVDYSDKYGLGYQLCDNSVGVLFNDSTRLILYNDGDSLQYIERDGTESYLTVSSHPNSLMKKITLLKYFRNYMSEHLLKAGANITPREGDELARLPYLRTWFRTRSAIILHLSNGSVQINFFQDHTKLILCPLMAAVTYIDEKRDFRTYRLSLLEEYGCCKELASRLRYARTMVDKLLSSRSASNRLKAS

SMILES	IC50
O=C1NCCSc2c1sc1ccc(O)cc21 [kb-NB142-70, 3,4-Dihydro-9-hydroxy-[1]benzothieno[2,3-f]-1,4-thiazepin-5(2H)-one]	17 ± 7.7 µM
COc1ccc2sc3c(c2c1)SCCNC3=O [kb-NB165-09, 3,4-Dihydro-9-methoxy-[1]benzothieno[2,3-f]-1,4-thiazepin-5(2H)-one]	> 50 µM
O=C1NCCCSc2c1sc1ccc(O)cc21 [kb-NB165-92, 2,3,4,5-Tetrahydro-10-hydroxybenzo[b]thieno[2,3-f]-1,5-thiazocin-6-one]	13 ± 7.7 µM
COc1ccc2sc3c(c2c1)SCCCNC3=O [kb-NB184-02, 2,3,4,5-Tetrahydro-10-methoxybenzo[b]thieno[2,3-f]-1,5-thiazocin-6-one]	> 50 µM

target: PLK2 (Homo sapiens, UniProt Q9NYY3); test: PLK2 IMAP TR-FRET counter-screen; type: biochemical; conditions: read-out: IC50 PLK2 (Ave ± SD)
Description: as §1, §2

PLK2, sequence (Q9NYY3 whole entry, species assumed): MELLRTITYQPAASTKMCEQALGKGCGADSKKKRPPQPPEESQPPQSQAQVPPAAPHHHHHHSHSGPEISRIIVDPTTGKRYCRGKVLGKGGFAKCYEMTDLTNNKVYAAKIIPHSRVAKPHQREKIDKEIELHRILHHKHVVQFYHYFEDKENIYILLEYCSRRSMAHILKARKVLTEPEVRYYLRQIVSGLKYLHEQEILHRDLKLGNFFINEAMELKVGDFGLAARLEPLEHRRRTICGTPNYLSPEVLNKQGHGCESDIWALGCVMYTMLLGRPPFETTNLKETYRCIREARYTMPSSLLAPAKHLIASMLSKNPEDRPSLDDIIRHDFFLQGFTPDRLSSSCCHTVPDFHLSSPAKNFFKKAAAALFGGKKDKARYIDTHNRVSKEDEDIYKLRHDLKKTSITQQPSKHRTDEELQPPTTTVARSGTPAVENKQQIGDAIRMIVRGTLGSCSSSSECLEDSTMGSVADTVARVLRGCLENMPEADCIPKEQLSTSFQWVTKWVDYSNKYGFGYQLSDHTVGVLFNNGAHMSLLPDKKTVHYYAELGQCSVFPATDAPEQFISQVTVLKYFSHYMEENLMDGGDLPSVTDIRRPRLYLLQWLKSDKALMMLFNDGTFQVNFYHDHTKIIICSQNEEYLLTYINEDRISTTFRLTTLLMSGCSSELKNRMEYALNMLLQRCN

SMILES	IC50
O=C1NCCSc2c1sc1ccc(O)cc21 [kb-NB142-70, 3,4-Dihydro-9-hydroxy-[1]benzothieno[2,3-f]-1,4-thiazepin-5(2H)-one]	39 ± 3.4 µM
COc1ccc2sc3c(c2c1)SCCNC3=O [kb-NB165-09, 3,4-Dihydro-9-methoxy-[1]benzothieno[2,3-f]-1,4-thiazepin-5(2H)-one]	> 50 µM
O=C1NCCCSc2c1sc1ccc(O)cc21 [kb-NB165-92, 2,3,4,5-Tetrahydro-10-hydroxybenzo[b]thieno[2,3-f]-1,5-thiazocin-6-one]	28 ± 3.1 µM
COc1ccc2sc3c(c2c1)SCCCNC3=O [kb-NB184-02, 2,3,4,5-Tetrahydro-10-methoxybenzo[b]thieno[2,3-f]-1,5-thiazocin-6-one]	> 50 µM

target: CAK (CDK7) (Homo sapiens, UniProt P50613); test: IMAP CAK TR-FRET counter-screen; type: biochemical; conditions: read-out: IC50 CAK(CDK7) (Ave ± SD)
Description: as §1, §2

CAK (CDK7), sequence (P50613 whole entry, species assumed): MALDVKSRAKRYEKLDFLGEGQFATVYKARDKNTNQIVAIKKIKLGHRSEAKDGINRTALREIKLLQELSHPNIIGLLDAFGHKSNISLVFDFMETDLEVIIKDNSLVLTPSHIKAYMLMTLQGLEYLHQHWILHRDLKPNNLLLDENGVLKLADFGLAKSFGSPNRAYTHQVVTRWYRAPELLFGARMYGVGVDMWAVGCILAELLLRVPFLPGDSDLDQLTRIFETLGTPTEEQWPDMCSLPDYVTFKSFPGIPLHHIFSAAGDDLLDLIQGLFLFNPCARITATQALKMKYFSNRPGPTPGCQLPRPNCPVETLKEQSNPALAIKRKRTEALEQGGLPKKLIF
CAK (CDK7), sequence (P51946 whole entry partner, species assumed): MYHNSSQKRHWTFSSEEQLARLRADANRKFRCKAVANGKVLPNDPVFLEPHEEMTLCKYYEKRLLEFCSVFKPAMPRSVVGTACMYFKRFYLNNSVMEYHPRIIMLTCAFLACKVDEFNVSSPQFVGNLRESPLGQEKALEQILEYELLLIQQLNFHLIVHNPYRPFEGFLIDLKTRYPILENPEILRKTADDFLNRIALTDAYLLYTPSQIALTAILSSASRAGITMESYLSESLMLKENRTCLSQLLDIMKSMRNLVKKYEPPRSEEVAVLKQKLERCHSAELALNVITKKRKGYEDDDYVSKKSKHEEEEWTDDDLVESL
CAK (CDK7), sequence (P51948 whole entry partner, species assumed): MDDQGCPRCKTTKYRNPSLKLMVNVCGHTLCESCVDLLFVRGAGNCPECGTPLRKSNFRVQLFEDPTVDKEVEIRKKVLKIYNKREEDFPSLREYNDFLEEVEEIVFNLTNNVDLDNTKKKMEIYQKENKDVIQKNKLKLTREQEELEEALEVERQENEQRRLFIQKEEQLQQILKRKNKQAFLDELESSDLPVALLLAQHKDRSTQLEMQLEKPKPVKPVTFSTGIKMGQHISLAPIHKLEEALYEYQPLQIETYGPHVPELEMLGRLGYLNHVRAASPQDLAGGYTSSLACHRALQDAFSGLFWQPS

SMILES	IC50
O=C1NCCSc2c1sc1ccc(O)cc21 [kb-NB142-70, 3,4-Dihydro-9-hydroxy-[1]benzothieno[2,3-f]-1,4-thiazepin-5(2H)-one]	12 ± 0.6 µM
COc1ccc2sc3c(c2c1)SCCNC3=O [kb-NB165-09, 3,4-Dihydro-9-methoxy-[1]benzothieno[2,3-f]-1,4-thiazepin-5(2H)-one]	17.1 ± 13.6 µM
O=C1NCCCSc2c1sc1ccc(O)cc21 [kb-NB165-92, 2,3,4,5-Tetrahydro-10-hydroxybenzo[b]thieno[2,3-f]-1,5-thiazocin-6-one]	11 ± 3.3 µM
COc1ccc2sc3c(c2c1)SCCCNC3=O [kb-NB184-02, 2,3,4,5-Tetrahydro-10-methoxybenzo[b]thieno[2,3-f]-1,5-thiazocin-6-one]	9 ± 4.1 µM

test system: not given; test: not given; conditions: not given

SMILES	melting point
O=C1NCCSc2c1sc1ccc(O)c(I)c21 [kb-NB165-31, 3,4-Dihydro-9-hydroxy-10-iodo-[1]benzothieno[2,3-f]-1,4-thiazepin-5(2H)-one]	128 °C (dec.)
O=C1NCCCc2c1oc1ccc(O)c(Cl)c21 [kb-NB77-88, 6-Chloro-7-hydroxy-2,3,4,5-tetrahydro-[1]benzoxolo[2,3-c]azepin-1-one]	> 300 °C
O=C1NCCc2c1[nH]c1ccc(O)cc21 [kb-NB123-59, 2,3,4,9-Tetrahydro-6-hydroxy-1H-pyrido[3,4-b]indol-1-one]	244 to 247 °C

target: T1, PKD1; test: Cellular inhibition of PMA-induced PKD1 S916 autophosphorylation in LNCaP cells (Western blot densitometry); type: cell-based; set-up: endogenous in cells; host or cells: LNCaP prostate cancer cells; conditions: not given
Description: The compound to be tested was dissolved in DMSO at an initial concentration of 10 mM. LNCaP prostate cancer cells were pre-treated with DMSO or increasing concentrations of the compound for 45 min, followed by treatment with or without 100 nM phorbol 12-myristate 13-acetate (PMA), an activator of PKD, for 20 min. The cells were harvested for Western blot analysis.
Briefly, cells were lysed in lysis buffer containing 200 mM Tris-HCl, pH 7.4, 100 μM 4-(2-aminoethyl)benzenesulfonyl fluoride, 1 mM EGTA, and 1% Triton X-100. Protein concentration was determined using the BCA Protein Concentration Assay reagent kit (Pierce). Equal amounts of protein were subjected to SDS-PAGE followed by electrotransfer to nitrocellulose membranes. Membranes were blocked with 5% nonfat milk in Tris-buffered saline and then probed with primary antibodies for p-S916-PKD1 (Millipore), p-S744/748-PKD1 (Cell Signaling Technology), or GAPDH (Enzo), followed by anti-mouse or anti-rabbit secondary antibodies conjugated to horseradish peroxidase (Bio-Rad). The bands were detected by incubating with the enhanced chemiluminescence (ECL) Western blotting detection reagent (Amersham Biosciences) and exposing to X-ray films.

SMILES	cellular activity fold lower than kb-NB142-70	cellular IC50 fold lower than CID755673
O=C1NCCSc2c1sc1ccc(O)c(I)c21 [kb-NB165-31, 3,4-Dihydro-9-hydroxy-10-iodo-[1]benzothieno[2,3-f]-1,4-thiazepin-5(2H)-one]	4 fold	
O=C1NCCSc2c1sc1ccc(O)cc21 [kb-NB142-70, 3,4-Dihydro-9-hydroxy-[1]benzothieno[2,3-f]-1,4-thiazepin-5(2H)-one]		5 fold

same assay, conditions: PKD1 autophosphorylation at S916 in LNCaP cells

SMILES	IC50
O=C1NCCSc2c1sc1ccc(O)c(I)c21 [kb-NB165-31, 3,4-Dihydro-9-hydroxy-10-iodo-[1]benzothieno[2,3-f]-1,4-thiazepin-5(2H)-one]	8.6 ± 2 µM
O=C1NCCCc2c1oc1ccc(O)cc21 [CID755673, 7-Hydroxy-2,3,4,5-tetrahydro-[1]benzoxolo[2,3-c]azepin-1-one, reference compound]	11.8 µM
O=C1NCCSc2c1sc1ccc(O)cc21 [kb-NB142-70, 3,4-Dihydro-9-hydroxy-[1]benzothieno[2,3-f]-1,4-thiazepin-5(2H)-one]	2.2 µM
COc1ccc2sc3c(c2c1)SCCNC3=O [kb-NB165-09, 3,4-Dihydro-9-methoxy-[1]benzothieno[2,3-f]-1,4-thiazepin-5(2H)-one]	3.1 ± 0.5 µM
O=C1NCCCSc2c1sc1ccc(O)cc21 [kb-NB165-92, 2,3,4,5-Tetrahydro-10-hydroxybenzo[b]thieno[2,3-f]-1,5-thiazocin-6-one]	2.6 µM and 2.56 µM
COc1ccc2sc3c(c2c1)SCCCNC3=O [kb-NB184-02, 2,3,4,5-Tetrahydro-10-methoxybenzo[b]thieno[2,3-f]-1,5-thiazocin-6-one]	18.6 ± 2 µM

From patent publication US9840515B2, “Protein kinase D inhibitors” (University of Pittsburgh—Of the Commonwealth System of …, priority 2010, dated 2017)
